# Legend:
# Mouse lenses = test: Mouse lens stiffness (axial and equatorial strain under load); details: 1.5 mM GTG, 48 h, 37° C.; load of 2,700 mg
# Experimental: Mouse lenses (6 months old) were incubated with 1.5 mM GTG for 48 h at 37° C. in serum free MEM in a CO2 incubator. Lens stiffness was measured using a set up as described previously (Cheng C, et al., Journal of visualized experiments: JoVE. 2016, (111):10.3791/ 53986). Lens stiffness was measured using a load of 2,700 mg. Axial and equatorial strains were calculated as previously described (Chen, JOVE 2016, supra).
# [1] = Stability of GTG in buffers, UPLC-MS MRM analysis; assay type: physicochemical; details: for stability: up to 48 h
# Experimental: All chromatographic analyses were carried out in a Waters Acquity UPLC system connected to a Sciex 4500 QTrap (Redwood City, Calif.). Mass spectrometric analyses were carried out in the multiple reaction monitoring (MRM) mode. Chromatographic separations were carried out in an ACQUITY BEH C18 peptide column (100*2.1 mm, 1.7 μm; Waters) connected to a guard column using a flow rate of 0.5 ml/min. Water (solvent A) and acetonitrile (solvent B) were used as eluents. To both solvents, 0.1% heptafluorobutyric acid (v/v) was added. Analyses were performed at a column temperature of 40° C. using gradient elution: 5% B (0-0.25 min) to 20% B (2 min) to 50% B (3 min) to 100% B (3.5-5 min). The column was equilibrated at 5% B for 1 min prior to the next analysis. Detection of the analytes was achieved by using full scan mode for the identification of metabolites in preparative HPLC fraction and multiple reaction monitoring for the quantitation in stability experiments. The ion source was run under the following conditions: temperature, 550° C.; ion spray voltage, 4.5 kV; curtain gas, 45 ml/min; nebulizer gas, 60 ml/min; heating gas, 60 ml/min.
# To test the stability, GTG was incubated under various conditions. The following buffers were used: 0.1 M phosphate buffer pH 5, 0.1 M phosphate buffer pH 7, 0.1 M phosphate buffer pH 9 and 0.1% formic acid. 10 μM solutions of […] in each buffer were stored at 4° C., 25° C. or 37° C. for up to 48 h, respectively. Sample aliquots were directly injected to ULPC-MS for MRM analysis. For the identification of degradation products sample aliquots were analyzed using full scan mode.
# αB-Crystallin = αB-Crystallin incubated with methylglyoxal with or without GTG: covalent crosslinking and AGE levels; assay type: biochemical; details: 250 μM GTG + 250 μM MGO
# Experimental: Legend: 1. αB-crystallin control, 2. αB-crystallin+250 μM GTG, 3. αB-crystallin+250 μM MGO, 4. αB-crystallin+250 μM GTG+250 μM MGO. The bar graphs are means±SD of triplicate measurements. ***p<0.0005. […] Lanes: 1. MW marker, 2. αB-crystallin standard, 3. αB-crystallin blank, 4. αB-crystallin+250 μM GTG, 5. αB-crystallin+250 μM MGO, 5. αB-crystallin+250 μM GTG and 250 μM MGO.
# To test the efficacy of GTG in the inhibition of AGE production, αB-Crystallin was incubated with methylglyoxal in the presence or absence of GTG and analyzed for covalent crosslinking and AGE levels.
# diabetic mice = test: AGE levels in lenses and retinas of STZ-diabetic mice by UPLC-MS/MS; assay type: in vivo; details: 1 nmole/g body weight i.p. once every two days, 8 weeks; vs untreated diabetic controls
# Experimental: The bar graphs are the means±SD of at least 8 measurements. *p<0.05, **p<0.005.
# GTG was also tested in diabetic mice. Diabetes was induced by repeated STZ injections. GTG (1 nmole/g body weight) was injected intraperitoneally once every two days. After 8 weeks, lenses and retinas were harvested and analyzed for AGE levels by UPLC-MS/MS.
# [2] = test system: human lens cells (FHL 124); test: FHL 124 cells: levels of GTG metabolites and α-dicarbonyls; assay type: cell-based
# Experimental: FIG. 6A depicts the scheme of dehydroascorbate (DHA) degradation and formation of reactive α-dicarbonyls and AGEs. […] The bar graphs are means±SD of triplicate measurements. **p<0.005, ***p<0.0005.
# Next, human lens cells (FHL 124) were incubated with dehydroascorbic acid in the presence or absence of GTG and analyzed for levels of GTG and its metabolites as well as α-dicarbonyls. […] FHL124 cells were pretreated with GTG before either DHA or MGO was added.
structure (smiles),measurement,setting,value
"CCOC(=O)CNC(=O)C(CSSCCNC(=N)N)NC(=O)CCC(N)C(=O)OCC (stereo not shown) [GTG, glutathione diethyl ester thioethylguanidine disulfide]",improvement of axial strain in comparison to control lenses,Mouse lenses,23%
same,improvement of equatorial strain in comparison to control lenses,Mouse lenses,72%
same,stability,"[1]; 0.1% formic acid, 10 μM, 4° C., 25° C. or 37° C.",stable at all temperatures
same,stability,"[1]; 0.1 M phosphate buffer pH 5, 4° C.",stable
same,stability,"[1]; 0.1 M phosphate buffer pH 5, 25° C.",stable
same,stability,"[1]; 0.1 M phosphate buffer pH 5, 37° C.",slightly degraded
same,stability,"[1]; 0.1 M phosphate buffer pH 7, 4° C., 25° C. or 37° C.",degraded at all temperatures
same,stability,"[1]; 0.1 M phosphate buffer pH 9, 4° C., 25° C. or 37° C.",degraded at all temperatures
same,reduction of the disulfide bond during the incubation,[1]; all buffer and temperature conditions of the stability test,not observed
same,covalent crosslinking in αB-crystallin incubated with methylglyoxal,αB-Crystallin; SDS-PAGE,significantly reduced
same,AGE formation (CEL levels) in αB-crystallin incubated with methylglyoxal,αB-Crystallin; after acid hydrolysis,significantly reduced
same,AGE levels in the lens,diabetic mice,lower
same,AGE levels in the retina,diabetic mice,lower
same,penetration of the plasma membrane of FHL124 cells,[2]; 50 mM GTG for 2 h,able to penetrate the plasma membrane
same,intracellular conversion to glutathione and mercaptoethylguanidine,"[2]; 50 mM GTG for 2 h, FHL124 cells",immediately reduced and hydrolyzed to glutathione and mercaptoethylguanidine
same,reactive α-dicarbonyls derived from dehydroascorbic acid,"[2]; cells treated 24 h with dehydroascorbic acid, subsequent incubation with GTG",significant reduction

# From patent US20200247846A1, “INHIBITION OF OXIDATIVE STRESS, GLYCATION, AND PROTEIN CROSSLINKING” (THE REGENTS OF THE UNIVERSITY OF COLORADO, A BODY CORPORATE, priority 2017, published 2020)
